Assay results: patent US20240139185A1, “COMPOUNDS THAT PARTICIPATE IN COOPERATIVE BINDING AND USES THEREOF” (Revolution Medicines, Inc., priority 2018, published 2024)

What was measured:
cyclophilin A (CYPA) = cyclophilin A (CYPA) (Homo sapiens, UniProt P62937); test: CYPA-compound binary complex formation by SPR; conditions: read-out: CYPA Binding Affinity
Outline: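 CypA-Avi captured on a Biotin CAPture chip (4 μg/ml), reference flow cell subtracted. Compounds injected as 10-point 2-fold dilutions from 50 μM in HBS-P+ pH7.4 with 2% DMSO; 60 s association and 60 s dissociation, solvent-corrected. Affinity obtained by steady-state fitting.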

[1] = target: T1, BRAF-GTP-KRAS-G12C complex (Homo sapiens, UniProt P01116+P62937, G12C); test: KRAS-BRAF complex disruption through competition with CYPA-compound by TR-FRET; conditions: biochemical BRAF-KRAS G12C-GTP disruption assay EC50, with CYPA
T1 construct: 50 nM of His6-KRas G12C-GTP (1-169); 500 nM of tagless CypA (1-165)
Outline: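 His6-KRAS G12C-GTP (1-169, 50 nM) with tagless CypA (1-165, 500 nM) was incubated with compound for 3 h at room temperature in pH 7.3 Hepes/NaCl/MgCl2 buffer containing GST-BRAF RBD. Anti-His Eu (10 nM) and anti-GST APC (50 nM) were then added for 1.5 h, and the 665/615 nm TR-FRET ratio was read. EC50 from 4-parameter fit; for specificity, wild-type KRAS replaced G12C, and CypA was omitted to test presenter dependence.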

pERK in H358 cells = test: pERK inhibition in H358 cells; format: cell-based, human; conditions: 4 hours treatment, read-out: Cellular pERK inhibition
Method: H358 cells (5500 cells) derived from a human lung cancer were plated in a 96 well plate in media (100 uL, RPMI with 10% FBS). After 24 hours, cells were treated for 4 hours with compound or DMSO. Cells were washed twice with room temperature TBS (200 uL) and fixed for 20 minutes with 4% paraformaldehyde diluted with TBS (150 uL). Cells were washed four times for five minutes with 0.1% TritonX/TBS (150 uL) to permeabilize the membrane. Cells were incubated with TBS blocking buffer (100 uL) at room temperature for 60 minutes. Primary antibody (Phospho-p44/42 MAPK (Erk1/2) (Thr202/Tyr204) (D13.14.4E) XP® Rabbit mAb #4370, Cell Signaling Technology; 1:200) was added, and the cells were incubated overnight at 4 C. The cells were washed four times for five minutes with 0.1% Tween 20/TBS (150 uL). Secondary antibody (IRDye® 800CW Goat-Anti-Rabbit IgG, Li-Cor Biosciences; 1:1000) and DRAQ5™ (Invitrogen; 1:2000) was added, and the cells were incubated for 1 hour at room temperature. The cells were washed four times for five minutes with 0.1% Tween 20/TBS (150 uL) and scanned using the LICOR (700 and 800 nm).

Kd (cyclophilin A (CYPA)) [µM] | EC50 [1] [µM] | IC50 (pERK in H358 cells) [µM] | Compound
≤ 5 | 0.5 to 5 | > 10 | CC(C)[C@@H](C(=O)N[C@H]1Cc2cc(O)cc(c2)-c2ccc3c(C(C)(C)C#N)cn(c3c2)C[C@H](C)COC(=O)[C@@H]2CCCN(N2)C1=O)N1CC[C@@H](NC(=O)CCl)C1=O [Compound 28]
≤ 5 | 0.5 to 5 | 1 to 10 | CC(C)[C@@H](C(=O)N[C@H]1Cc2cc(O)cc(c2)-c2ccc3c(C(C)(C)C#N)cn(c3c2)C[C@H](C)COC(=O)[C@@H]2CCCN(N2)C1=O)N1CC[C@@H](N(C)C(=O)CCl)C1=O [Compound 30]
5 to 15 | ≤ 0.5 | ≤ 1 | CC(C)C(C(=O)NC1Cc2cc(O)cc(c2)-c2ccc3c(C(C)(C)C#N)cn(c3c2)CC(C)(C)COC(=O)C2CCCN(N2)C1=O)N(C)C(=O)C1CCN(C(=O)CCl)C1 (stereo not drawn) [Compound 33]
5 to 15 | > 5 | > 10 | CC(C)[C@@H](C(=O)N[C@H]1Cc2cc(O)cc(c2)-c2ccc3c(C(C)(C)C#N)cn(c3c2)CC(C)(C)COC(=O)[C@@H]2CCCN(N2)C1=O)N(C)C(=O)C1(F)CN(C(=O)[C@@H](C)Cl)C1 [Compound 35]
5 to 15 | ≤ 0.5 | > 10 | CC(C)[C@@H](C(=O)N[C@H]1Cc2cc(O)cc(c2)-c2ccc3c(C(C)(C)C#N)cn(c3c2)CC(CC#N)COC(=O)[C@@H]2CCCN(N2)C1=O)N(C)C(=O)C1CN(C(=O)CCl)C1 (stereo partly drawn) [Compound 39]
5 to 15 | 0.5 to 5 | 1 to 10 | C=CC(=O)N1CC2(CCN(C(C(=O)NC3Cc4cc(O)cc(c4)-c4ccc5c(C(C)(C)C#N)cn(c5c4)CC(C)(C)COC(=O)C4CCCN(N4)C3=O)C(C)C)C2=O)C1 (stereo not drawn) [Compound 42]
5 to 15 | ≤ 0.5 | 1 to 10 | CC(C)C(C(=O)NC1Cc2cc(O)cc(c2)-c2ccc3c(C(C)(C)C#N)cn(c3c2)CC(C)(C)COC(=O)C2CCCN(N2)C1=O)N1CCC2(CN(C(=O)CCl)C2)C1=O (stereo not drawn) [Compound 44]
5 to 15 | ≤ 0.5 | ≤ 1 | CC1COC(=O)C2CCCN(N2)C(=O)C(NC(=O)C(C(C)C)N(C)C(=O)C2CN(C(=O)CCl)C2)Cc2cc(O)cc(c2)-c2ccc3c(-c4cccc(C#N)c4)cn(c3c2)C1 (stereo not drawn) [Compound 46]
5 to 15 | ≤ 0.5 | 1 to 10 | COc1ccccc1-c1cn2c3cc(ccc13)-c1cc(O)cc(c1)CC(NC(=O)C(C(C)C)N(C)C(=O)C1CN(C(=O)CCl)C1)C(=O)N1CCCC(N1)C(=O)OCC(C)C2 (stereo not drawn) [Compound 48]
5 to 15 | ≤ 0.5 | 1 to 10 | COc1ccc(-c2cn3c4cc(ccc24)-c2cc(O)cc(c2)C[C@H](NC(=O)[C@H](C(C)C)N(C)C(=O)C2CN(C(=O)CCl)C2)C(=O)N2CCC[C@H](N2)C(=O)OC[C@@H](C)C3)cc1 [Compound 50]
> 15 | ≤ 0.5 | > 10 | CC[C@@H](C(=O)N[C@H]1Cc2cc(O)cc(c2)-c2ccc3c(C(C)(C)C#N)cn(c3c2)CC(C)(C)COC(=O)[C@@H]2CCCN(N2)C1=O)N(C)C(=O)C1CN(C(=O)CCl)C1 [Compound 56]
> 15 | ≤ 0.5 | 1 to 10 | CN(C(=O)C1CN(C(=O)CCl)C1)[C@@H](CC1CC1)C(=O)N[C@H]1Cc2cc(O)cc(c2)-c2ccc3c(C(C)(C)C#N)cn(c3c2)CC(C)(C)COC(=O)[C@@H]2CCCN(N2)C1=O [Compound 57]
> 15 | > 5 | > 10 | CC(C)[C@@H](C(=O)N[C@H]1Cc2cc(O)cc(n2)-c2ccc3c(C(C)(C)C#N)cn(c3c2)C[C@H](C)COC(=O)[C@@H]2CCCN(N2)C1=O)N(C)C(=O)C1CN(C(=O)CCl)C1 [Compound 59]
5 to 15 | > 5 | > 10 | CC(C)[C@@H](C(=O)N[C@H]1Cc2cc(O)cc(n2)-c2ccc3c(C(C)(C)C#N)cn(c3c2)C[C@H](C)CNC(=O)[C@@H]2CCCN(N2)C1=O)N(C)C(=O)C1CN(C(=O)CCl)C1 [Compound 60]
> 15 | ≤ 0.5 | 1 to 10 | CCN(C(=O)C1CN(C(=O)CCl)C1)[C@H](C(=O)N[C@H]1Cc2cc(O)cc(c2)-c2ccc3c(C(C)(C)C#N)cn(c3c2)CC(C)(C)COC(=O)[C@@H]2CCCN(N2)C1=O)C(C)C [Compound 65]
≤ 5 | ≤ 0.5 | 1 to 10 | CC(C)[C@@H](C(=O)N[C@H]1Cc2cc(O)cc(c2)-c2ccc3c4cc(C#N)ccc4n(c3c2)CC(C)(C)COC(=O)[C@@H]2CCCN(N2)C1=O)N(C)C(=O)C1CN(C(=O)CCl)C1 [Compound 68]
≤ 5 | ≤ 0.5 | 1 to 10 | CC(C)[C@@H](C(=O)N[C@H]1Cc2cc(O)cc(c2)-c2ccc3c(Cc4ccccn4)cn(c3c2)C[C@H](C)COC(=O)[C@@H]2CCCN(N2)C1=O)N(C)C(=O)C1CN(C(=O)CCl)C1 [Compound 69]
≤ 5 | ≤ 0.5 | 1 to 10 | CON=C(C)c1cn2c3cc(ccc13)-c1cc(O)cc(c1)CC(NC(=O)C(C(C)C)N(C)C(=O)C1CN(C(=O)CCl)C1)C(=O)N1CCCC(N1)C(=O)OCC(C)C2 (stereo not drawn) [Compound 73]
≤ 5 | ≤ 0.5 | ≤ 1 | CC(C)[C@@H](C(=O)N[C@H]1Cc2cc(O)cc(c2)-c2ccc3c(CCC#N)cn(c3c2)C[C@H](C)COC(=O)[C@@H]2CCCN(N2)C1=O)N(C)C(=O)C1CN(C(=O)CCl)C1 [Compound 76]
≤ 5 | ≤ 0.5 | ≤ 1 | CC1COC(=O)C2CCCN(N2)C(=O)C(NC(=O)C(C(C)C)N(C)C(=O)C2CN(C(=O)CCl)C2)Cc2cc(O)cc(c2)-c2ccc3c(C(C)C#N)cn(c3c2)C1 (stereo not drawn) [Compound 77]
5 to 15 | ≤ 0.5 | 1 to 10 | CC(C)[C@@H](C(=O)N[C@H]1Cc2cc(O)cc(c2)-c2ccc3c(C(C#N)C4CC4)cn(c3c2)C[C@H](C)COC(=O)[C@@H]2CCCN(N2)C1=O)N(C)C(=O)C1CN(C(=O)CCl)C1 (stereo partly drawn) [Compound 78]
5 to 15 | ≤ 0.5 | ≤ 1 | CC(C)[C@@H](C(=O)N[C@H]1Cc2cc(O)cc(c2)-c2ccc3c(C4(C#N)CCC4)cn(c3c2)C[C@H](C)COC(=O)[C@@H]2CCCN(N2)C1=O)N(C)C(=O)C1CN(C(=O)CCl)C1 [Compound 81]
≤ 5 | ≤ 0.5 | ≤ 1 | CC(C)[C@@H](C(=O)N[C@H]1Cc2cc(O)cc(c2)-c2ccc3c(C(C)(C)C#N)c(C#N)n(c3c2)C[C@H](C)COC(=O)[C@@H]2CCCN(N2)C1=O)N(C)C(=O)C1CN(C(=O)CCl)C1 [Compound 85]
> 15 | ≤ 0.5 | ≤ 1 | CCc1c(-c2ccccc2OC)n2c3cc(ccc13)-c1cc(O)cc(c1)C[C@H](NC(=O)[C@H](C(C)C)N(C)C(=O)C1CN(C(=O)CCl)C1)C(=O)N1CCC[C@H](N1)C(=O)OC[C@@H](C)C2 [Compound 86]
5 to 15 | 0.5 to 5 | 1 to 10 | C=CC(=O)N1CCC(C(=O)N(C)C(C(=O)NC2Cc3cc(O)cc(c3)-c3ccc4c(C(C)(C)C#N)cn(c4c3)CC(C)(C)COC(=O)C3CCCN(N3)C2=O)C(C)C)C1 (stereo not drawn) [Compound 89]
5 to 15 | 0.5 to 5 | ≤ 1 | C=CC(=O)N1CCC(C(=O)N(C)C(C(=O)NC2Cc3cc(O)cc(c3)-c3ccc4cc(-c5ccccc5COC)n(c4c3)CC(C)(C)COC(=O)C3CCCN(N3)C2=O)C(C)C)C1 (stereo not drawn) [Compound 90]
5 to 15 | 0.5 to 5 | 1 to 10 | C#CCOCc1cc2ccc3cc2n1C[C@H](C)COC(=O)[C@@H]1CCCN(N1)C(=O)[C@@H](NC(=O)[C@H](C(C)C)N(C)C(=O)C1CN(C(=O)CCl)C1)Cc1cc(O)cc-3c1 [Compound 91]
> 15 | ≤ 0.5 | > 10 | C=CC(=O)N1CCN([C@H](C(=O)N[C@H]2Cc3cc(O)cc(c3)-c3ccc4c(C)cn(c4c3)CC(C)(C)COC(=O)[C@@H]3CCCN(N3)C2=O)C(C)C)C1=O [Compound 97]
> 15 | ≤ 0.5 | ≤ 1 | CCc1cn2c3cc(ccc13)-c1cc(O)cc(c1)CC(NC(=O)C(C(C)C)N(C)C(=O)C1CN(C(=O)CCl)C1)C(=O)N1CCCC(N1)C(=O)OCC(C)(C)C2 (stereo not drawn) [Compound 99]
5 to 15 | ≤ 0.5 | > 10 | CC(C)[C@@H](C(=O)N[C@H]1Cc2cc(O)cc(c2)-c2ccc3c(S(C)(=O)=O)cn(c3c2)CCCOC(=O)[C@@H]2CCCN(N2)C1=O)N(C)C(=O)C1CN(C(=O)CCl)C1 [Compound 102]
